# From patent US6967196B1, “Sulfonamide compounds and uses thereof” (Bristol-Myers Squibb Company, priority 1999, dated 2005)
# Read-outs that look alike come from different tables or passages of the source.
# Test system: amyloid β production in transfected H4 (human neuroglioma) cells stably expressing APP constructs
# Assay: In vitro cell-based assay of inhibitors of amyloid β production (ELISA)
# Settings: amyloid β in medium by ELISA, read-out: ACTIVITY (IC50, inhibition of amyloid β production)
# Method: In Vitro Cell-Based Assay of Inhibitors of Amyloid β Production
# Transfected H4 (human neuroglioma) cells stably expressing APP constructs are used to identify and assess inhibitors of Aβ production. In brief, cells lines are exposed to compounds, and the effect of each compound on amyloid β production is determined by measuring the amount of amyloid β produced using an enzyme linked immunosorbent assay (ELISA) that detects amyloid β (see, for example, Seubert et al., (1992) Nature, 359:325-327).
# Transfected cells that stably express wild-type and variant forms of APP are plated in 96-well format plates at a density sufficient for the rapid detection of the secreted amyloid β (experimentally predetermined for a particular stable cell population). Cells are plated at least six hours prior to the introduction of the test compound at which time the growth medium is replaced by fresh medium containing the compound to be tested. All synthetic agents are initially screened at doses ranging from 10-100 μM. Higher dilutions of agents can be used to minimize cytotoxicity. Incubation of cells with a test compound continues for approximately 16 hours at which time aliquots of medium from each well are removed and assayed for amyloid β.
# ELISA is carried out by methods known in the art (see, e.g., Haass et al., Antibodies: A Laboratory Manual, Harlow and lane, Editors, Cold Spring Harbor Press, 1988) The capture antibody is typically a mouse monoclonal (IgG1/kβ-APPa) which recognizes the carboxyl terminal epitope of amyloid β. The specificity of the capture antibody insures measurement of amyloid β without interference from other secreted APP fragments that share amino acid sequence (amyloid β 1-16) homology with amyloid β but lack the carboxy-terminal region. The detecting antibody is typically an affinity-purified rabbit polyclonal antibody that is specific for the amino terminus of amyloid β.
# Results from test compounds are compared to results obtained when cells are treated with control agents. Amyloid β levels are determined by comparison to a standard curve obtained by subjecting a range of known amounts of amyloid β to the ELISA.
# A compound is identified as “active” when it inhibits cellular production of amyloid β relative to levels in control samples by at least 50% at the initial tested concentration without significant cytotoxicity. Active compounds are then assayed in dose-response experiments to determine the lowest dose of compound necessary for inhibition of amyloid β production.
# [1] = transfected H4 cells stably expressing APP, approx. 16 h incubation
# [2] = transfected H4 cells stably expressing APP, approximately 16 hours incubation
# [3] = transfected H4 cells stably expressing APP constructs, approximately 16 hours incubation
Substance,IC50 [1] [nM],IC50 [2] [nM],also measured
"2-[2-((1R)-1-{[(4-chlorophenyl)sulfonyl]-2,5-difluoroanilino}ethyl)phenyl]ethyl 1,2,3,4-tetrahydro-1-naphthalenylcarbamate [Example 644]",100 to 500,–,–
"2-[2-((1R)-1-{[(4-chlorophenyl)sulfonyl]-2,5-difluoroanilino}ethyl)phenyl]ethyl 3,4-difluorobenzylcarbamate [Example 726]",100 to 500,–,–
"2-[2-((1R)-1-{[(4-chlorophenyl)sulfonyl]-2,5-difluoroanilino}ethyl)phenyl]ethyl phenylcarbamate [Example 762]",100 to 500,–,–
"2-[2-((1R)-1-{[(4-chlorophenyl)sulfonyl]-2,5-difluoroanilino}ethyl)phenyl]ethyl sec-butylcarbamate [Example 650]",100 to 500,–,–
"2-bromo-N-{3-(2-({[(4-chlorophenyl)sulfonyl]-2,5-difluoroanilino}methyl)phenoxy]propyl}-N-methylbenzamide [Example 641]",100 to 500,–,–
"2-chloro-N-{3-[2-(1-{[(4-chlorophenyl)sulfonyl]-2,5-difluoroanilino}methyl)phenoxy]propyl}-N-methylbenzamide [Example 774]",100 to 500,–,–
"3,4-dichloro-N-{3-[2-(1-{[(4-chlorophenyl)sulfonyl]-2,5-difluoroanilino}ethyl)phenoxy]propyl}-N-methylbenzamide [Example 847]",–,100 to 500,–
"3,4-dichloro-N-{3-[2-(1-{[(4-chlorophenyl)sulfonyl]-2,5-difluoroanilino}ethyl)phenoxy]propyl}-N-methylbenzenesulfonamide [Example 822]",–,100 to 500,–
"3,4-dichloro-N-{3-[2-({[(4-chlorophenyl)sulfonyl]-2,5-difluoroanilino}methyl)phenoxy]propyl}-N-methylbenzamide [Example 932]",–,> 500,–
"3,5-dichloro-N-{3-[2-(1-{[(4-chlorophenyl)sulfonyl]-2,5-difluoroanilino}ethyl)phenoxy]propyl}-N-methylbenzamide [Example 950]",–,> 500,–
"3,5-dichloro-N-{3-[2-({[(4-chlorophenyl)sulfonyl]-2,5-difluoroanilino}methyl)phenoxy]propyl}-N-methylbenzamide [Example 1002]",–,> 500,–
3-(2-{[(phenylsulfonyl)anilino]methyl}phenyl)propanoic acid [Example 993],–,> 500,–
"3-((4R)-4-{[(4-chlorophenyl)sulfonyl]-2,5-difluoroanilino}-7-fluoro-1,2,3,4-tetrahydro-1-naphthalenyl)propanoic acid [Example 1007]",–,> 500,–
"3-[2-(2-{[(4-chlorophenyl)sulfonyl]-2,5-difluoroanilino}-1-methylethyl)-5-fluorophenyl]butanoic acid [Example 940]",–,> 500,–
"3-[2-((1R)-1-{[(4-chlorophenyl)sulfonyl]-2,5-difluoroanilino}ethyl)-5-fluorophenyl]-1-propanesulfonic acid [Example 881]",–,> 500,–
"3-[2-((1R)-1-{[(4-chlorophenyl)sulfonyl]-2,5-difluoroanilino}ethyl)phenyl]-N-(2,5-difluorobenzyl)propanamide [Example 383]",–,–,"IC50 (transfected H4 cells stably expressing APP, approximately 16 hours incubation, Table B): 50 to 100 nM"
"3-[2-((1R)-1-{[(4-chlorophenyl)sulfonyl]-2,5-difluoroanilino}ethyl)phenyl]-N-isopropylpropanamide [Example 655]",100 to 500,–,–
"3-[2-((1R)-1-{[(4-chlorophenyl)sulfonyl]-2,5-difluoroanilino}ethyl)phenyl]propyl benzyl(methyl)carbamate [Example 763]",100 to 500,–,–
"3-[2-((1R)-1-{[(4-chlorophenyl)sulfonyl]-2,5-difluoroanilino}ethyl)phenyl]propyl phenylcarbamate [Example 730]",100 to 500,–,–
"3-bromo-N-{3-[2-(1-{[(4-chlorophenyl)sulfonyl]-2,5-difluoroanilino}ethyl)phenoxy]propyl}-N-methylbenzamide [Example 820]",–,100 to 500,–

Substance,IC50 [1] [nM],IC50 [2] [nM],also measured
"3-bromo-N-{3-[2-(1-{[(4-chlorophenyl)sulfonyl]-2,5-difluoroanilino}ethyl)phenoxy]propyl}-N-methylbenzenesulfonamide [Example 806]",–,100 to 500,–
"3-bromo-N-{3-[2-(1-{[(4-chlorophenyl)sulfonyl]-2,5-difluoroanilino}ethyl)phenoxy]propyl}benzamide [Example 829]",–,100 to 500,–
"3-chloro-N-{3-[2-(1-{[(4-chlorophenyl)sulfonyl]-2,5-difluoroanilino}ethyl)phenoxy]propyl}-N-methylbenzamide [Example 688]",100 to 500,–,–
"3-chloro-N-{3-[2-(1-{[(4-chlorophenyl)sulfonyl]-2,5-difluoroanilino}ethyl)phenoxy]propyl}-N-methylbenzenesulfonamide [Example 684]",100 to 500,–,–
"3-chloro-N-{3-[2-(1-{[(4-chlorophenyl)sulfonyl]-2,5-difluoroanilino}ethyl)phenoxy]propyl}benzamide [Example 900]",–,> 500,–
"4-[2-((1R)-1-{[(4-chlorophenyl)sulfonyl]-2,5-difluoroanilino}ethyl)-5-fluorophenyl]-N-(cyanomethoxy)butanamide [Example 1079]",–,> 500,–
4-[2-({[(2-nitrophenyl)sulfonyl]anilino}methyl)phenyl]butanoic acid [Example 1097],–,–,IC50 [3]: > 10000 nM
"4-benzoyl-N-((1S)-1-{{(3-[2-({[(4-chlorophenyl)sulfonyl]-2,5-difluoroanilino}methyl)phenoxy]propyl}(methyl)amino]carbonyl}-5-{[5-(2-oxohexahydro- [Example 1053]",–,> 500,–
"4-bromo-N-{3-[2-(1-{[(4-chlorophenyl)sulfonyl]-2,5-difluoroanilino}ethyl)phenoxy]propyl}-N-methylbenzamide [Example 683]",100 to 500,–,–
"4-butoxy-N-{3-[2-({[(4-chlorophenyl)sulfonyl]-2,5-difluoroanilino}methyl)phenoxy]propyl}-N-methylbenzamide [Example 817]",–,100 to 500,–
4-chloro-2-({[(4-chlorophenyl)sulfonyl]anilino}methyl)phenyl trifluoromethanesulfonate [Example 1090],–,–,IC50 [3]: > 10000 nM
"4-chloro-N-(2,5-dichlorophenyl)-N-[3-[2-[4-chloro-N-(2,5-dichlorophenyl)-N-[(3-amino)-1(R)-methylpropyl]benzenesulfonamide]-3,4-dioxo-1-cyclobutenyl)amine-1(R)- [Example 1143]",–,–,IC50 [3]: 100 to 500 nM
"4-chloro-N-(2,5-dichlorophenyl)-N-[5-(1,1-dioxido-4-thiomorpholinyl)-1(R)-methylpropyl]benzenesulfonamide [Example 1104]",–,–,IC50 [3]: ≤ 25 nM
"4-chloro-N-(2,5-dichlorophenyl)-N-[5-[[2-[(methylsulfonyl)-1-piperidinyl]-1(R)-methylpentyl]benzenesulfonamide [Example 1116]",–,–,IC50 [3]: 25 to 50 nM
"4-chloro-N-(2,5-difluorophenyl)-N-((1R)-1-{2-[3-(1H-imidazol-1-yl)propoxy]-6-methoxybenzyl}benzenesulfonamide hydrochloride [Example 911]",–,> 500,–
"4-chloro-N-(2,5-difluorophenyl)-N-[3-[2-[4-chloro-N-(2,5-difluorophenyl)-N-[(3-amino)-1(R)-methylpropyl]benzenesulfonamide]-3,4-dioxo-1-cyclobutenyl)amine-1(R)- [Example 1139]",–,–,IC50 [3]: 100 to 500 nM
"4-chloro-N-(2,5-difluorophenyl)-N-[(1R)-1-(4-[(ethylsulfonyl)amino]butyl}-4-fluorophenyl)ethyl]benzenesulfonamide [Example 1075]",–,> 500,–
"4-chloro-N-(2,5-difluorophenyl)-N-{2-[3-(1-piperidinyl)propyl]benzyl}-N-phenylbenzenesulfonamide [Example 1044]",–,> 500,–
"4-chloro-N-(5-chloro-2-fluorophenyl)-N-[3-[2-[4-chloro-N-(5-chloro-2-fluorophenyl)-N-[(3-amino)-1(R)-methylpropyl]benzenesulfonamide]-3,4-dioxo-1-cyclobutenyl)amine-1(R)- [Example 1130]",–,–,IC50 [3]: 50 to 100 nM
